The values below come from patent US12378248B2 (The United States of America, as represented by the …, priority 2018, dated 2025).

What is called inhibition is the relative decrease from the control value, in per cent. The Emax is the maximal effect, on the per cent scale that the assay sets.

For series [1], the target named is T1, mA1AR (Mus musculus, UniProt Q60612).
T1 sequence (Q60612 1-326): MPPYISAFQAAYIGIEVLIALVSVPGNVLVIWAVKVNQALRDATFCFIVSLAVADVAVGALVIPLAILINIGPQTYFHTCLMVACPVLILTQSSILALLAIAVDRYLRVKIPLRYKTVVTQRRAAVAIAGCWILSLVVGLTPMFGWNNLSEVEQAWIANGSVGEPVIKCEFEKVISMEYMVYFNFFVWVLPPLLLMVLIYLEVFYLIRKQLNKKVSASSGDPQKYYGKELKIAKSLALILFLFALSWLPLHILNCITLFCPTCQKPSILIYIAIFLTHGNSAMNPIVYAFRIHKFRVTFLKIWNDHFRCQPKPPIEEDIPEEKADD
Description: Adenosine receptor binding, mA1AR. Conditions: for Ki: (m), read-out: A1AR % inhibition or Ki (converted); for Binding selectivity for mA1AR: compared to mA3AR.

Series [2] can be described thus: Plasma protein binding at 10 μM. It is filed as in vitro ADME, human. Particulars: unbound percent ± standard deviation. On the procedure:
(§1) Plasma protein binding in human plasma, mouse plasma, and rat plasma was determined. Verapamil and warfarin served as positive controls. The results are expressed as unbound percent±standard deviation.

In series [3] the test system is off-target receptors (PDSP). Description: Off-target interactions determined by the PDSP, whole screen. It is filed as binding, human. Conditions: no off-target interaction listed.
The target in another series is mA2AAR (Mus musculus, UniProt Q60613). Description: Adenosine receptor binding, mA2AAR. Particulars: read-out: A2AAR % inhibition (converted).
mA2AAR, sequence (Q60613 whole entry): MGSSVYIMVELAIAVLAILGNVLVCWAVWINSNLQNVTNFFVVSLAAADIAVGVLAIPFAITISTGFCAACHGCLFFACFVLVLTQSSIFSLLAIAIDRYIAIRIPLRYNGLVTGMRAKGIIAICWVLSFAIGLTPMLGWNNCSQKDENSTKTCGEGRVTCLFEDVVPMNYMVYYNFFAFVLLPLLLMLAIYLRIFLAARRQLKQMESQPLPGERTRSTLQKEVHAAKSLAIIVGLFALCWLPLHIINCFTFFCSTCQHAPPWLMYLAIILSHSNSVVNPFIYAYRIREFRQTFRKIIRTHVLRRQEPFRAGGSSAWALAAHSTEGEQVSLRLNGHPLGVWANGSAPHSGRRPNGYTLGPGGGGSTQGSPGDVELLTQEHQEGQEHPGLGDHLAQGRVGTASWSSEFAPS
The next series deals with T2, hA2AAR (Homo sapiens, UniProt P29274).
T2 construct: expressed in transfected cells; host or cells: HEK293
T2 sequence (P29274 whole entry): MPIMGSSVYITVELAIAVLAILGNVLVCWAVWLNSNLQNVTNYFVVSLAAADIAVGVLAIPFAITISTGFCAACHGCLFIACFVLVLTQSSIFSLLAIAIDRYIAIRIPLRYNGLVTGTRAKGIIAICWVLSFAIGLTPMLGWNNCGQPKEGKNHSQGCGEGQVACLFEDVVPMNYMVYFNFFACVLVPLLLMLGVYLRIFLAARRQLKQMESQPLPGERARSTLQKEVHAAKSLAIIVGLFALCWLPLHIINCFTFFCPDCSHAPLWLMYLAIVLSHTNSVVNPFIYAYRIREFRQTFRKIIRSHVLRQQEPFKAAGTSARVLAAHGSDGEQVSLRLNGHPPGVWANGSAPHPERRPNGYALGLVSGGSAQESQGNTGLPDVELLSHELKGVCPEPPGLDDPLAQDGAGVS
Description: Radioligand binding in membranes of HEK293 cells expressing hA2AAR. Conditions: read-out: A2AAR % inhibition; for Ki: (h), values without % sign (Ki).

Series [4] addresses T3, mA3AR (Mus musculus, UniProt Q61618).
T3 sequence (Q61618 1-319): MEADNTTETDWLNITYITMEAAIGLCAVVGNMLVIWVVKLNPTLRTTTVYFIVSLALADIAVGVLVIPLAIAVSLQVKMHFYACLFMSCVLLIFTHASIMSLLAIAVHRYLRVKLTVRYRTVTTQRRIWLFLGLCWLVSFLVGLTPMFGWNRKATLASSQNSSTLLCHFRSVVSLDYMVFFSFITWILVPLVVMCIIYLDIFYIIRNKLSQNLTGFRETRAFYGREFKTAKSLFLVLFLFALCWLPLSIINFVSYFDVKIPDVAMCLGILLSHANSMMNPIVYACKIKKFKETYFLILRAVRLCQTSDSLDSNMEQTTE
The series is described as follows: Adenosine receptor binding, mA3AR. Conditions: (m); Ki; read-out: A3AR % inhibition or Ki (converted).

For series [5], the system named is wild-type C57BL/6J mice. Description: Hypothermia (Tb by telemetry) after ip dosing. Conditions: 3 mg/kg ip; average from dosing to 60 min; mean±SD. It is filed as in vivo, mouse. On the procedure:
(§2) Compounds were dosed ip. Tb and activity were measured by telemetry and the averages from dosing to 60 min were calculated. […] Data are for the highest dose used and are mean±SD from 3 to 22 mice/group (usually 5-7). P values are unpaired t-Test vs vehicle-treated controls assayed simultaneously. Vehicle data are mean±SD from all (n=83) vehicle treated mice.

The test system of series [6] is wild-type C57BL/6J mice. The series is described as follows: Locomotor activity by telemetry after ip dosing. It is filed as in vivo, mouse. Particulars: 3 mg/kg ip; average from dosing to 60 min; mean±SD. On the procedure: as §2
In a further series the target is T4, hA1AR (Homo sapiens, UniProt P30542).
T4 construct: expressed in transfected cells; host or cells: CHO
T4 sequence (P30542 1-326): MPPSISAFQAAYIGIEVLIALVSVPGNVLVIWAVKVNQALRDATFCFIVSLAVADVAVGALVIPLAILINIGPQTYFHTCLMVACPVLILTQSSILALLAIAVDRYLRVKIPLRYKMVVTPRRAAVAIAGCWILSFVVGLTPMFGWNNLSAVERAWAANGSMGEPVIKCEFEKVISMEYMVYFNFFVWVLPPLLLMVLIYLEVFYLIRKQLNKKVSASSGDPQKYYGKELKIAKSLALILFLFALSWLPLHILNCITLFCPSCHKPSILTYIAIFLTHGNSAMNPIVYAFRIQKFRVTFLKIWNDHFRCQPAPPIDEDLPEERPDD
The series is described as follows: Radioligand binding in membranes of CHO cells expressing hA1AR, [3H]N6-R-phenylisopropyladenosine. Conditions: (h); Ki; read-out: A1AR % inhibition or Ki.

Series [7] can be described thus: Plasma protein binding at 10 μM. It is filed as in vitro ADME, mouse. Conditions: unbound percent ± standard deviation. As to the method: as §1
For series [8], the target named is T3, mA3AR. Description: Guanine nucleotide ([35S]GTPγS) binding assay. It is filed as biochemical. Particulars: effect of 10 μM test compound as % of 10 μM 16. As to the method:
(§3) cLogP was calculated using ChemDraw Professional, v. 16.0. Binding selectivity for mA1Ar is expressed in terms of fold, compared to mA3AR (Data from Table 1).
For orientation: Binding of GTPγS marks nucleotide exchange on a G protein.

The target of series [9] is T1, mA1AR. Description: Guanine nucleotide ([35S]GTPγS) binding assay. It is filed as biochemical. On the procedure: as §3
The next series has as its target T5, hA3AR (Homo sapiens, UniProt P0DMS8).
T5 construct: expressed in transfected cells; host or cells: CHO
T5 sequence (P0DMS8 1-318): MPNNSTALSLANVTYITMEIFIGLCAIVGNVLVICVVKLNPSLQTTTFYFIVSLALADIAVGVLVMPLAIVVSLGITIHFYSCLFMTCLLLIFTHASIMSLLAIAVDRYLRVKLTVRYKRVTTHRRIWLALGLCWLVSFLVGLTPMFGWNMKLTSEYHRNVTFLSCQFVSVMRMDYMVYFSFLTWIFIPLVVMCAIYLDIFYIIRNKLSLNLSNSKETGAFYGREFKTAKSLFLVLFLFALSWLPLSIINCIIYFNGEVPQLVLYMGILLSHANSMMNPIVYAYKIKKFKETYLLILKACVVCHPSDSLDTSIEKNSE
Description: Radioligand binding in membranes of CHO cells expressing hA3AR.

Series [10] in a line: Plasma protein binding at 10 μM. Conditions: unbound percent ± standard deviation. It is filed as in vitro ADME, rat. On the procedure: as §1
Series [11] concerns the target norepinephrine transporter (NET) (Homo sapiens, UniProt P23975). The series is described as follows: Off-target interaction determined by the PDSP. It is filed as binding. Conditions: read-out: Off-target, receptor (h, unless noted) (Ki, μM): NET.
Series [12] has as its target dopamine transporter (DAT) (Homo sapiens, UniProt Q01959). Description: Off-target interaction determined by the PDSP. It is filed as binding. Conditions: read-out: Off-target, receptor (h, unless noted) (Ki, μM): DAT.
A short description of series [13]: Stability in simulated gastric fluid. It is filed as physicochemical. Particulars: pH 1.60, 37° C., after 120 min.
A further series relates to mice. The series is described as follows: Tail suspension test, immobility time. It is filed as in vivo, mouse. As to the method:
1 hour after administration of compounds, the mice were individually suspended by their tails for 6 minutes, and the average amount of time the mice were immobile was determined. […]

The next series has as its target rA2AAR (Rattus norvegicus, UniProt P30543). The series is described as follows: Adenosine receptor binding, rA2AAR. Conditions: (r); values without % sign (Ki); read-out: A2AAR % inhibition (converted).
In a further series the target is T6, rA1AR (Rattus norvegicus, UniProt P25099).
T6 sequence (P25099 1-326): T1 sequence (Q60612 1-326) with E151V, A155D, I157R, E316D, I319L, D325E
The series is described as follows: Adenosine receptor binding, rA1AR. Conditions: (r), read-out: A1AR % inhibition or Ki (converted).

A further series addresses rA3AR (Rattus norvegicus, UniProt P28647). The series is described as follows: Adenosine receptor binding, rA3AR. Particulars: (r), read-out: A3AR % inhibition or Ki (converted).
Another series deals with sigma receptor σ2 (UniProt Q5BJF2). The series is described as follows: Off-target interaction determined by the PDSP. It is filed as binding, human. Particulars: read-out: Off-target, receptor (h, unless noted) (Ki, μM): σ2.
The target of a further series is histamine receptor H1 (Homo sapiens, UniProt P35367). Description: Off-target interaction determined by the PDSP. Conditions: read-out: Off-target, receptor (h, unless noted) (Ki, μM): H1. It is filed as binding.
histamine receptor H1, sequence (P35367 whole entry): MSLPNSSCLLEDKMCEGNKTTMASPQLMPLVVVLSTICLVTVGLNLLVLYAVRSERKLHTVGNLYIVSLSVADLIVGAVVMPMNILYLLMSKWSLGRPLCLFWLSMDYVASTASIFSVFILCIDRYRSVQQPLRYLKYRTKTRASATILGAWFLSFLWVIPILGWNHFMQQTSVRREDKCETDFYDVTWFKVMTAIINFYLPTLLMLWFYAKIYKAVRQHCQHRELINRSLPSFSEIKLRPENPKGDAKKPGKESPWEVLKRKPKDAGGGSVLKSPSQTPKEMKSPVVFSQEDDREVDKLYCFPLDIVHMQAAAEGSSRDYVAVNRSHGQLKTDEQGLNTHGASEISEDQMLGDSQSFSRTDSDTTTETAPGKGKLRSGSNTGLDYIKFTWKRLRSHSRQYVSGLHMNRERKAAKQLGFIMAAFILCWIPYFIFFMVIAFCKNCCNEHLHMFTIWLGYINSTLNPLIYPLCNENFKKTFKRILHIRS
Setting [14] is: (h), Ki, read-out: A3AR % inhibition or Ki.
The mark [15] stands for this setting: 0.3 mg/kg i.p., 1 hour after administration, 6 min suspension.

SMILES strings stand for the structures. Where a chain is given by its changes, count along the chain named. Like-named read-outs stand apart in the source and are kept apart here. Bounds are passed on as bounds.

rA2AAR, sequence (P30543 whole entry): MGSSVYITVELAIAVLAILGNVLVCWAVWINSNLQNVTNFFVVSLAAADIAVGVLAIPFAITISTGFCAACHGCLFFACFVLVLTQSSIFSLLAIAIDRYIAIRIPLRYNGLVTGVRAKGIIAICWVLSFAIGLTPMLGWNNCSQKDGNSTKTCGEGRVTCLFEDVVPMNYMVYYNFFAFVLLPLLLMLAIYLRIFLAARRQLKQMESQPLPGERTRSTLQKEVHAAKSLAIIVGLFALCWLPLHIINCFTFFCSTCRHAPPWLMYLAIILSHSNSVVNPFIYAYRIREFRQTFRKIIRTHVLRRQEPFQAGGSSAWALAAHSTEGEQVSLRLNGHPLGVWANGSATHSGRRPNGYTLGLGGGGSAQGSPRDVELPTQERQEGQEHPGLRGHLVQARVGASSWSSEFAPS
norepinephrine transporter (NET), sequence (P23975 whole entry): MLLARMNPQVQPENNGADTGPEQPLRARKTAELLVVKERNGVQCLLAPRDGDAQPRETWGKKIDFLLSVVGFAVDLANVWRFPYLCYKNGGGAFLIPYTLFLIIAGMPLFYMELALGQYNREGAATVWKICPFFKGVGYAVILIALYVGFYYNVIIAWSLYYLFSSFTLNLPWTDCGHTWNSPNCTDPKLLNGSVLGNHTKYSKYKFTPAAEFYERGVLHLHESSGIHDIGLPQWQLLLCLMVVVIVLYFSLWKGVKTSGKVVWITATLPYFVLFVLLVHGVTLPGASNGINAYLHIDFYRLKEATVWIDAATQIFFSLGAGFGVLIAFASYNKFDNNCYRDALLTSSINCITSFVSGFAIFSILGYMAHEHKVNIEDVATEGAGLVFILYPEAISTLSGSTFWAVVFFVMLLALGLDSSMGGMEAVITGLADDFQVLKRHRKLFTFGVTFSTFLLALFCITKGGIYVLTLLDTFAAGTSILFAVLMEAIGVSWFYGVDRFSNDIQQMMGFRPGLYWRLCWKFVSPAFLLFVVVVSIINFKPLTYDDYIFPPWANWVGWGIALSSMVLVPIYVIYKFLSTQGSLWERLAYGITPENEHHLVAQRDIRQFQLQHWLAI
dopamine transporter (DAT), sequence (Q01959 whole entry): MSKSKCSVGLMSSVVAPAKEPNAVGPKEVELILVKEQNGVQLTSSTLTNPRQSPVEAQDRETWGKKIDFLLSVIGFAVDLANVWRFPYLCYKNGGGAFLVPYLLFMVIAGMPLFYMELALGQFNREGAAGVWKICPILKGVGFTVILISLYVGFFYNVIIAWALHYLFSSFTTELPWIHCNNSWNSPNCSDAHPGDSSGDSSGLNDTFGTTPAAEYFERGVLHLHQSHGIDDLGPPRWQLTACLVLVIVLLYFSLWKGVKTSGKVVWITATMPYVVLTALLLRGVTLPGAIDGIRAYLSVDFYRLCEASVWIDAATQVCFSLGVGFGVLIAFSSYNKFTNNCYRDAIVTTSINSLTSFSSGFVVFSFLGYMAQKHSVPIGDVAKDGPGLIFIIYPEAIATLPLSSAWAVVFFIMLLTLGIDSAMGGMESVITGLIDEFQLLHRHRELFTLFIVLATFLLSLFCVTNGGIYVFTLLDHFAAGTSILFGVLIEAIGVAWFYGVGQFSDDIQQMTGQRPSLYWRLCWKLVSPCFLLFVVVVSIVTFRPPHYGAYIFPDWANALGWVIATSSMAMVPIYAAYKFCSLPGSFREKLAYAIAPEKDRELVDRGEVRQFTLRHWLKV
rA3AR, sequence (P28647 whole entry): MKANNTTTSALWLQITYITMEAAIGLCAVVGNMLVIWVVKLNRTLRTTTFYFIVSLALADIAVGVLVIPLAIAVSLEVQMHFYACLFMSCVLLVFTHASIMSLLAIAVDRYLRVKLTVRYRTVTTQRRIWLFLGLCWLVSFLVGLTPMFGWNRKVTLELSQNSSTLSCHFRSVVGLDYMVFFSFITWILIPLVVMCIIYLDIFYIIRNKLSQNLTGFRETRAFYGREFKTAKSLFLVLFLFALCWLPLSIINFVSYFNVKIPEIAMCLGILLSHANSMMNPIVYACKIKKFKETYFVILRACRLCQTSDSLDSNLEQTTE

`O[C@H]1[C@H](n2cnc3c(N[C@H]4C[C@H]5CC[C@@H]4C5)nc(Cl)nc32)[C@H]2C[C@@]2(CCl)[C@H]1O` [Compound 31, (1S,2R,3S,4R,5S)-4-(6-(((1R,2S,4S)-Bicyclo[2.2.1]heptan-2-yl)amino)-2-chloro-9H-purin-9-yl)-1-(chloromethyl)bicyclo[3.1.0]hexane-2,3-diol]: the Ki at mA1AR [1] is 1.86 nM; on mA3AR [4], 503 nM; at hA1AR, 44.8 ± 1.3 nM; at hA3AR (setting [14]), 456 ± 201 nM. Also, at mA1AR [1], the “Binding selectivity for mA1AR” value is reported as “(270) fold”. Further, the “human, % free” value in series [2] is 4.04 ± 0.60%. The “Off-target, receptor (h, unless noted)” value in series [3] is “none”. Further, the inhibition at 10 µM was 15% at mA2AAR and 54 ± 8% at hA2AAR. The “Tb (° C.)” value with wild-type C57BL/6J mice [5] was determined as 36.6 ± 0.5 °C. In addition, the “Activity (counts)” value with wild-type C57BL/6J mice [6] is on record as 16.8 ± 3.6 counts. Besides, in [7], the “mouse, % free” value worked out at 2.95 ± 0.84%. Further, the Emax at 10 µM on mA3AR [8] stood at 50 ± 11%; on mA1AR [9], 123 ± 16%. Moreover, the “rat, % free” value in [10] came to 2.53 ± 0.45%.
On to `OC[C@H]1O[C@@H](n2cnc3c(NC(C4CCC4)C4CCC4)ncnc32)[C@H](O)[C@@H]1O` [Compound 9, (2R,3R,4R,5R)-2-(6-((Dicyclobutylmethyl)amino)-9H-purin-9-yl)-5-(hydroxymethyl)tetrahydrofuran-3,4-diol], for which the Ki in [11] was 4.82 µM; on hA2AAR, 3550 ± 440 nM; at mA3AR [4], 897 nM; in series [12], 1.78 µM; at hA1AR it was 2.14 ± 0.52 nM.
For the molecule `O[C@@H]1[C@H](O)[C@@H]2C[C@@H]2[C@H]1n1cnc2c(NC(C3CC3)C3CC3)nc(Cl)nc21` [MRS5474, reference compound], the “initial amount present in simulated gastric fluid” value in [13] is 51%. In addition, the “average immobility times versus the control group of mice” value with mice (3, 10 or 20 mg/kg i.p., 1 hour after administration) is reported as “lower than the average immobility times exhibited by the control group of mice”. Moreover, the “average immobility times versus mice treated with fluoxetine” value in the series with mice (3, 10 or 20 mg/kg i.p., fluoxetine 10 mg/kg) was “approximately twice longer”.
Regarding `OC[C@H]1O[C@@H](n2cnc3c(NC(C4CCC4)C4CCC4)nc(Cl)nc32)[C@H](O)C1O` (stereo in doubt) [Compound 12, (2R,3R,4R,5R)-2-(2-Chloro-6-((dicyclobutylmethyl)amino)-9H-purin-9-yl)-5-(hydroxymethyl)tetrahydrofuran-3,4-diol], the “Binding selectivity for mA1AR” value at mA1AR [1] is reported as “(1000) fold”. Besides, in series [2], the “human, % free” value was 5.81 ± 0.39%. In series [13], the “initial amount present in simulated gastric fluid” value is recorded as 100%. Moreover, in the series on mice (setting [15]), the “average immobility time relative to mice treated with 10 mg/kg of fluoxetine” value is “approximately ⅔” and the “average immobility time relative to the control group of mice” value was “approximately ½”. The “Tb (° C.)” value in the series with wild-type C57BL/6J mice [5] stood at 35.5 ± 0.8 °C. The “Activity (counts)” value in the series with wild-type C57BL/6J mice [6] was 13.5 ± 3.5 counts. Further, the “mouse, % free” value in series [7] amounted to 4.74 ± 0.67%. Also, the Emax at 10 µM on mA3AR [8] amounted to 63 ± 5%. For the same molecule, on mA1AR [9], the Emax at 10 µM came out at 90 ± 19%. In addition, the “rat, % free” value in series [10] came out at 4.64 ± 0.06%.
Take `O[C@@H]1[C@H](O)[C@@H](CCl)O[C@H]1n1cnc2c(NC3CC4CCC3C4)ncnc21` (some centres unmarked) [Compound 3, reference compound]: the Ki at mA1AR [1] is 0.14 nM; on rA2AAR, 477 nM; on rA1AR it was 0.34 nM; on hA2AAR, greater than 10000 nM; on mA3AR [4] it was 424 nM; at rA3AR, 282 nM. Also, the Ki on hA3AR is 915 ± 299 nM.
Turning to `OC[C@H]1O[C@@H](n2cnc3c(NC(C4CC4)C4CC4)ncnc32)[C@H](O)[C@@H]1O` [Compound 8], the Ki at rA2AAR is 1370 nM; on hA2AAR, 1470 ± 380 nM; on hA1AR, 0.85 ± 0.27 nM; at hA3AR, 41.3 ± 5.3 nM.
For the molecule `Nc1ncnc2c1ncn2[C@@H]1O[C@H](C(=O)NC2CC2)[C@@H](O)[C@H]1O` [Compound 17, reference compound], the Ki was 4.35 µM on sigma receptor σ2; 50 ± 10 nM at hA2AAR; 1.9 nM on hA1AR; 7.88 µM at histamine receptor H1; 180 ± 50 nM on hA3AR (setting [14]).
